From US11793827B2, “Adenosine derivative and pharmaceutical composition comprising the same” (Brii Biosciences, Inc., priority 2021, dated 2023)

How the values were obtained:
[1] = Liver S9 stability (human liver S9); assay type: in vitro ADME; conditions: for half-life at 1 µM: human liver S9, 37° C.; for Formation of EFdA at 30 min: human liver S9, 30 min
Description: Add 600 μL/well stop solution (cold in 4° C., including 100 ng/mL Tolbutamide/100 ng/mL Labetalol) to terminate the TO plate, then put it on ice. Dispense 840 μL/well S9 solution to 96-well plate as reservoir according to plate map. Then add 100 μL/well to every plate by Apricot. Incubate S9 solution and compound at 37° C. for about 10 min except NCF60 and TO. After adding S9 solution and 98μ LPB buffer to NCF60, incubate at 37° C. without pre-warming, start timer 1. After 60 min, add 600 μL/well stop solution to terminate the reaction. After pre-warming, dispense 760 μL/well cofactor solution to 96-well plate as reservoir according to plate map. Then add 98 μL/well to every plate by Apricot to start reaction. Incubate at 37° C., start timer 2, Add 600 μL/well stop solution (cold in 4° C., including 100 ng/mL Tolbutamide and Labetalol) to terminate the reaction. Samples are centrifuged at 4000 rpm for 20 min. While centrifuging, load 8× new 96-well plate with 300 μL HPLC water, then transfer 100 μL supernatant, mix with water for LC/MS/MS, transferred to Bioanalytical Services for LC-MS/MS analysis. Use equation of first order kinetics [NT]1/2 and CL: Equation of first order kinetics: [formula] [formula] [formula] [formula]

[2] = Plasma exposures following intramuscular administration of prodrugs to cynomolgus monkeys; conditions: single IM injection, 10 mg/kg
[3] = Plasma stability (human plasma); conditions: for Formation of EFdA at 30 min: human plasma; for half-life at 2 µM: human, pH 7.4
Description: The pooled frozen plasma was thawed in a water bath at 37° C. prior to experiment. Plasma was centrifuged at 4000 rpm for 5 min and the clots were removed if any. The pH will be adjusted to 7.4±0.1 if required.
Preparation of test compounds and positive control (propantheline bromide): 1 mM intermediate solution was prepared by diluting 10 μL of the stock solution with 90 μL MeOH; 1 mM intermediate of positive control Propantheline was prepared by diluting 10 μL of the stock solution with 90 μL ultrapure water. 100 μM dosing solution was prepared by diluting 20 μL of the intermediate solution (1 mM) with 180 μL MeOH. 98 μL of blank plasma was spiked with 2 μL of dosing solution (100 μM) to achieve 2 μM of the final concentration in duplicate and samples were incubated at 37° C. in a water bath. […] Centrifuged sample plates at 4,000 rpm for 10 min. An aliquot of supernatant (100 μL) was transferred from each well to another plates.

half-life at 1 µM [1] [min]	Formation of EFdA at 30 min [1]	Formation of EFdA at 30 min [3]	half-life at 2 µM ([3]; pooled plasma) [min]	SMILES	Release of EFdA in vivo and prodrug level in the systemic circulation [2]	half-life at 2 µM ([3]; plasma) [min]
< 50	Yes	Yes	< 50	C#C[C@]1(COC(=O)OCCC23CC4CC(CC(C4)C2)C3)O[C@@H](n2cnc3c(N)nc(F)nc32)C[C@@H]1O [Compound 7, ((2R, 3S, 5R)-5-(6-amino-2-fluoro-9H-purin-9-yl)-2-ethynyl-3-hydroxy-tetrahydrofuran-2-yl)methyl 2-(1-adamantyl)ethyl carbonate]	efficiently release EFdA in vivo with minimal to low levels of prodrug detected in the systemic circulation	–
< 50	Yes	Yes	< 50	C#C[C@]1(COC(=O)OCCCC23CC4CC(CC(C4)C2)C3)O[C@@H](n2cnc3c(N)nc(F)nc32)C[C@@H]1O [Compound 10, ((2R,3S,5R)-5-(6-amino-2-fluoro-9H-purin-9-yl)-2-ethynyl-3-hydroxy-tetrahydrofuran-2-yl)methyl 3-(1-adamantyl)propyl carbonate]	efficiently release EFdA in vivo with minimal to low levels of prodrug detected in the systemic circulation	–
< 50	Yes	Yes	< 50	C#C[C@]1(COC(=O)OCCCCC23CC4CC(CC(C4)C2)C3)O[C@@H](n2cnc3c(N)nc(F)nc32)C[C@@H]1O [Compound 12, ((2R,3S,5R)-5-(6-amino-2-fluoro-9H-purin-9-yl)-2-ethynyl-3-hydroxy-tetrahydrofuran-2-yl)methyl 4-(1-adamantyl)butyl carbonate]	efficiently release EFdA in vivo with minimal to low levels of prodrug detected in the systemic circulation	–
50 to 200	Yes	No	> 200	C#C[C@]1(COC(=O)OCCCC23CC4CC(CC(C4)C2)C3)O[C@@H](n2cnc3c(N)nc(F)nc32)C[C@@H]1OC(=O)OCCCC12CC3CC(CC(C3)C1)C2 [Compound 22, ((2R,3S,5R)-3-[3-(1-adamantyl)propoxycarbonyloxy]-5-(6-amino-2-fluoro-9H-purin-9-yl)-2-ethynyl-tetrahydrofuran-2-yl)methyl 3-(1-adamantyl)propyl carbonate]	–	–
< 50	Yes	No	> 200	C#C[C@]1(COC(=O)OCC23CC4CC(CC(C4)C2)C3)O[C@@H](n2cnc3c(N)nc(F)nc32)C[C@@H]1OC(=O)OCC12CC3CC(CC(C3)C1)C2 [Compound 23, ((2R,3S,5R)-3-(1-adamantylmethoxycarbonyloxy)-5-(6-amino-2-fluoro-9H-purin-9-yl)-2-ethynyl-tetrahydrofuran-2-yl)methyl 1-adamantylmethyl carbonate]	–	–
< 50	Yes	No	> 200	C#C[C@]1(COC(=O)OC23CC4CC(CC(C4)C2)C3)O[C@@H](n2cnc3c(N)nc(F)nc32)C[C@@H]1OC(=O)C(C)C [Compound 28, ((2R,3S,5R)-2-(1-adamantyloxycarbonyloxymethyl)-5-(6-amino-2-fluoro-9H-purin-9-yl)-2-ethynyl-tetrahydrofuran-3-yl) 2-methylpropanoate]	–	–

SMILES	half-life at 1 µM [1] [min]	Formation of EFdA at 30 min [1]	Formation of EFdA at 30 min [3]	half-life at 2 µM ([3]; pooled plasma) [min]	Release of EFdA in vivo and prodrug level in the systemic circulation [2]	half-life at 2 µM ([3]; plasma) [min]
C#C[C@]1(COC(=O)OCC23CC4CC(CC(C4)C2)C3)O[C@@H](n2cnc3c(N)nc(F)nc32)C[C@@H]1OC(=O)OCC [Compound 24, ((2R,3S,5R)-2-(1-adamantylmethoxycarbonyloxymethyl)-5-(6-amino-2-fluoro-9H-purin-9-yl)-2-ethynyl-tetrahydrofuran-3-yl) ethyl carbonate]	< 50	Yes	Yes	–	–	50 to 200
C#C[C@]1(COC(=O)OCCCCC23CC4CC(CC(C4)C2)C3)O[C@@H](n2cnc3c(N)nc(F)nc32)C[C@@H]1OC(=O)OCC [Compound 25, ((2R,3S,5R)-2-[4-(1-adamantyl)butoxycarbonyloxymethyl]-5-(6-amino-2-fluoro-9H-purin-9-yl)-2-ethynyl-tetrahydrofuran-3-yl) ethyl carbonate]	< 50	Yes	Yes	–	–	50 to 200
C#C[C@]1(COC(=O)OCCCC23CC4CC(CC(C4)C2)C3)O[C@@H](n2cnc3c(N)nc(F)nc32)C[C@@H]1OC(=O)OCC [Compound 26, ((2R,3S,5R)-2-[3-(1-adamantyl)propoxycarbonyloxymethyl]-5-(6-amino-2-fluoro-9H-purin-9-yl)-2-ethynyl-tetrahydrofuran-3-yl) ethyl carbonate]	< 50	Yes	Yes	–	–	< 50
C#C[C@]1(COC(=O)OC23CC4CC(CC(C4)C2)C3)O[C@@H](n2cnc3c(N)nc(F)nc32)C[C@@H]1OC(=O)OCC [Compound 27, 1-adamantyl ((2R,3S,5R)-5-(6-amino-2-fluoro-purin-9-yl)-3-ethoxycarbonyloxy-2-ethynyl-tetrahydrofuran-2-yl)methyl carbonate]	< 50	Yes	No	–	–	> 200
